Measurements taken from patent publication US10874743B2, “IRAK degraders and uses thereof” (Kymera Therapeutics, Inc., priority 2017, dated 2020).

How the values were obtained:
[1] = molecular target: CRBN-DDB1 / GST-IRAK4 ternary complex (Homo sapiens, UniProt Q96SW2+Q9NWZ3); test: AlphaLISA assay to determine ternary complex formation; assay type: binding
Protocol: The assay mixture contains 100 nM CRBN-DDB1, 100 nM GST-IRAK4, 20 μg/mL Nickle Chelate Donor Bead (Perkin Elmer Catalog # AS101D) and 20 μg/mL GSH Acceptor Bead (Perkin Elmer Catalog # AL109C) in a buffer containing 50 mM HEPES, pH 7.5, 100 mM NaCl, 0.1% BSA, 2 mM TCEP, 0.05% Tween-20. […] AlphaLISA signals (Excitation 680 nm and emission 615 nm) were recorded on a Perkin Elmer EnVision 2104 Multilabel reader. The raw data was converted to the relative amount of ternary complex formation by normalization to the signal generated by His-tagged GST protein only. The final data points were plotted and the curves were fit using non-linear regression using GraphPad Prism software.

IRAK4 = molecular target: T1, IRAK4 (Homo sapiens, UniProt Q9NWZ3); test: OCI-LY-10 degradation assay (western blot, % IRAK4 degraded after 4 hours); assay type: cell-based; set-up: endogenous in cells; host or cells: OCI-LY10; conditions: OCI-LY10 cells
T1 sequence (Q9NWZ3 1-460): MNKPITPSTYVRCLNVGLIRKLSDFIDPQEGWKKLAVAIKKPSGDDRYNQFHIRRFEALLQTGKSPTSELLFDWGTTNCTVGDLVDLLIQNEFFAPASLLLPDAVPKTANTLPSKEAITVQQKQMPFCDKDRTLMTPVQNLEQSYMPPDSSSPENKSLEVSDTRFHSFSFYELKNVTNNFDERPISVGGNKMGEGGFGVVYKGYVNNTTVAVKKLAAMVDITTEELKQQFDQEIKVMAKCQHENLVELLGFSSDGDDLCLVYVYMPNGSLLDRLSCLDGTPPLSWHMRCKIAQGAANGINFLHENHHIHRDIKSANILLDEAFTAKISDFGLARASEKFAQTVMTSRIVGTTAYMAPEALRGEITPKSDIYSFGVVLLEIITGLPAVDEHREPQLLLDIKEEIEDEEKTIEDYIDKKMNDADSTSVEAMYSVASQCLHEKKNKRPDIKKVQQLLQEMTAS
In short: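 IRAK4 loss after 4 h at 37° C was scored A (>50%), B (>20-50%) or C (<20%) from infrared western blots of RIPA lysates, 20-25 μg protein per lane. Compound was applied at 0.003-10 μM final to OCI-LY10 cells cultured in RPMI-1640 with 20% FBS and 55 μM 2-ME.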

Sequence of CRBN-DDB1 / GST-IRAK4 ternary complex (Q96SW2 whole entry, one chain of several): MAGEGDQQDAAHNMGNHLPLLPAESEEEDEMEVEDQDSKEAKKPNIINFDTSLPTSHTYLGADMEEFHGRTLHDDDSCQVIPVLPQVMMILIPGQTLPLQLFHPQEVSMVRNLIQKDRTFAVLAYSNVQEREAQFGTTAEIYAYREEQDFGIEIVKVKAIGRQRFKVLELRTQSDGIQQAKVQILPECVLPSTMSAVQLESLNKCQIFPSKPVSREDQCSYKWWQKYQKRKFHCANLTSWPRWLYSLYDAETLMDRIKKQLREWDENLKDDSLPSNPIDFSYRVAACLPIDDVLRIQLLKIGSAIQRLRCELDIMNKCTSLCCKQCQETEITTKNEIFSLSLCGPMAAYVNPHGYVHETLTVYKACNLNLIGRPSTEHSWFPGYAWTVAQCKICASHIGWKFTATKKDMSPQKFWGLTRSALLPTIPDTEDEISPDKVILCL
Sequence of CRBN-DDB1 / GST-IRAK4 ternary complex (Q16531 whole entry partner, one chain of several): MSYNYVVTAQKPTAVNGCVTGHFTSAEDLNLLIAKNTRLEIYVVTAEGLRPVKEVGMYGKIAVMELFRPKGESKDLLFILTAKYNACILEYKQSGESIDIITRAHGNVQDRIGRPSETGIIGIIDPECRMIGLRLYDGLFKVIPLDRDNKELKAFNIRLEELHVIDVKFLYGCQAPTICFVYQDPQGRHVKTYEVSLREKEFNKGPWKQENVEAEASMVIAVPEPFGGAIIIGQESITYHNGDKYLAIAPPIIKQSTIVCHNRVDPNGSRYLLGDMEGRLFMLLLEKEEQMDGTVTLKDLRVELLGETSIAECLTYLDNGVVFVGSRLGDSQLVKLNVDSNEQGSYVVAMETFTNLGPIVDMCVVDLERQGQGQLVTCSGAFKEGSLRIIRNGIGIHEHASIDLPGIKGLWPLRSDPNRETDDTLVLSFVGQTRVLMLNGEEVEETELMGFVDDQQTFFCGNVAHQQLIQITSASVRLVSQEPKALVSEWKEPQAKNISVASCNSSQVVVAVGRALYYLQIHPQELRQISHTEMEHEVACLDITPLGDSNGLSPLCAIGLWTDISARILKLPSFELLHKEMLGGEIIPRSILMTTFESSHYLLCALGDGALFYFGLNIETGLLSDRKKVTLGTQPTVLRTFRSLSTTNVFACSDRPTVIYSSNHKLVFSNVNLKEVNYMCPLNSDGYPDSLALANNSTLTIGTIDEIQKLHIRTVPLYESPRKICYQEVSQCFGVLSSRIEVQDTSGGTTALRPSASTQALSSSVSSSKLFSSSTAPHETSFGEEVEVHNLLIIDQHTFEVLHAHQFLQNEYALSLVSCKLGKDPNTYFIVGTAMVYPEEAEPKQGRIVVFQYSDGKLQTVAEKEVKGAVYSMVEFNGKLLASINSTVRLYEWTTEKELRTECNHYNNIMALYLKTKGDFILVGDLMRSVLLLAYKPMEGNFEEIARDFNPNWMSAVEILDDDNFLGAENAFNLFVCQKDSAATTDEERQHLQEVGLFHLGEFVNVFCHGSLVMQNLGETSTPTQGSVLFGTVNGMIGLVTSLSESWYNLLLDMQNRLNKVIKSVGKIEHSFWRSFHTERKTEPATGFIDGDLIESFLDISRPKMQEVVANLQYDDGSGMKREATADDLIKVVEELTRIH

NC(=O)c1nn(-c2ccc(C(=O)NCCOCCOCCNc3cccc4c3C(=O)N(C3CCC(=O)NC3=O)C4=O)cc2)cc1NC(=O)c1coc(-c2ccnc(NCC(F)(F)F)c2)n1 (stereo not shown) [I-127, N-[3-carbamoyl-1-[4-[2-[2-[2-[[2-(2,6-dioxo-3-piperidyl)-1,3-dioxo-isoindolin-4-yl]amino]ethoxy]ethoxy]ethylcarbamoyl]phenyl]pyrazol-4-yl]-2-[2-(2,2,2-trifluoroethylamino)-4-pyridyl]oxazole-4-carboxamide]
Average % Ternary Complex (N = 2) ([1]; compound concentration 1.00E−07 M): 31.29%
Average % Ternary Complex (N = 2) ([1]; compound concentration 1.25E−08 M): 5.89%
Average % Ternary Complex (N = 2) ([1]; compound concentration 1.28E−05 M): 1.58%
Average % Ternary Complex (N = 2) ([1]; compound concentration 1.60E−06 M): 12.53%
Average % Ternary Complex (N = 2) ([1]; compound concentration 2.00E−07 M): 28.96%
Average % Ternary Complex (N = 2) ([1]; compound concentration 2.50E−08 M): 12.66%
Average % Ternary Complex (N = 2) ([1]; compound concentration 3.20E−06 M): 6.74%
Average % Ternary Complex (N = 2) ([1]; compound concentration 4.00E−07 M): 25.83%
Average % Ternary Complex (N = 2) ([1]; compound concentration 5.00E−08 M): 23.14%
Average % Ternary Complex (N = 2) ([1]; compound concentration 6.25E−09 M): 2.71%
Average % Ternary Complex (N = 2) ([1]; compound concentration 6.40E−06 M): 3.36%
Average % Ternary Complex (N = 2) ([1]; compound concentration 8.00E−07 M): 17.79%

O=C1CCC(N2C(=O)c3cccc(NCCOCCOCCNCc4ccc(-n5cc(NC(=O)c6coc(-c7ccnc(NCC8CC8)c7)n6)c(C(F)F)n5)cc4)c3C2=O)C(=O)N1 (stereo not shown) [I-210, 2-[2-(Cyclopropylmethylamino)-4-pyridyl]-N-[3-(difluoromethyl)-1-[4-[[2-[2-[2-[[2-(2,6-dioxo-3-piperidyl)-1,3-dioxoisoindolin-4-yl]amino]ethoxy]ethoxy]ethylamino]methyl]phenyl]pyrazol-4-yl]oxazole-4-carboxamide]
OCI-LY10 % IRAK4 Degradation (0.01 uM) (IRAK4; 4 hours, 0.01 uM compound): C (<20% degradation)
OCI-LY10 % IRAK4 Degradation (0.1 uM) (IRAK4; 4 hours, 0.1 uM compound): B (>20-50% degradation)
OCI-LY10 % IRAK4 Degradation (1 uM) (IRAK4; 4 hours, 1 uM compound): A (>50% degradation)
OCI-LY10 % IRAK4 Degradation (IRAK4; IRAK4 degraded after 4 hours, western blot): A (>50% degradation)
